Columns and labels:
[1] = test system: bacterial Biofilm (Listeria monocytogenes ATCC 35152, Clostridium sporogenes ATCC 19404, Candida albicans ATCC 26555 and Escherichia col); assay: MIC test against bacterial Biofilm; assay type: cell-based; conditions: incubated 48 h at 37° C.
[2] = test system: Pseudomonas aeruginosa (ATCC 15442); assay: Minimum Inhibitory Concentration (MIC) test; conditions: incubated 48 h at 37° C.

For `CC1CCC(C(C)C)C(O)C1` (stereo not shown) [Menthol, 5-Methyl-2-(propan-2-yl)cyclohexan-1-ol], the “Minimum inhibitory concentration (MIC)” value [1] was 5.98% and the “Minimum inhibitory concentration (MIC)” value [2] was 5.32%.
For `CC1=CCC(O)(C(C)C)CC1` (stereo not shown) [Terpinen-4-ol, 4-Methyl-1-(propan-2-yl)cyclohex-3-en-1-ol], the “Minimum inhibitory concentration (MIC)” value [1] was 1.96% and the “Minimum inhibitory concentration (MIC)” value [2] was 1.64%.
`Cc1ccc(C(C)C)cc1O` [Carvacrol, 5-Isopropil-2-metilfenol] was tested, and the “Minimum inhibitory concentration (MIC)” value [1] was 1.01% and the “Minimum inhibitory concentration (MIC)” value [2] was 0.89%.
For `CC12CCC(CC1)C(C)(C)O2` [Eucalyptol, 1,3,3-Trimethyl-2-oxabicyclo[2.2.2]octane], the “Minimum inhibitory concentration (MIC)” value [1] was 1.21% and the “Minimum inhibitory concentration (MIC)” value [2] was 1.09%.
For `Cc1ccc(C(C)C)c(O)c1` [Thymol, 5-Methyl-2-(propan-2-yl) phenol], the “Minimum inhibitory concentration (MIC)” value [1] was 2.29% and the “Minimum inhibitory concentration (MIC)” value [2] was 2.11%.
